According to patent publication US5422351A, “Bis-benzo or benzopyrido cyclohepta piperidene, piperidylidene and piperazine compounds, compositions and methods of use” (Schering Corporation, priority 1992, dated 1995):
Where two headings read alike, the source gives them in different places.

Assays:
[1] = tested on: PAF-induced platelet aggregation (human platelet-rich plasma); assay: PAF-induced platelet aggregation (in vitro); assay type: cell-based; settings: PAF 1-5×10^-8 M, read-out: PAF Antagonism (in vitro) IC50
Experimental: Platelet-activating factor (PAF) causes aggregation of platelets by a receptor-mediated mechanism. Therefore, PAF-induced platelet aggregation provides a simple and convenient assay to screen compounds for PAF antagonism.
Blood was centrifuged at 110× g for 15 min. and the supernatant platelet-rich plasma (PRP) carefully transferred into a polypropylene tube. Platelet-poor-plasma (PPP) was prepared by centrifuging PRP at 12,000× g for 2 min. (Beckman Microfuge B). PRP was used within 3 hr. of drawing the blood.
PAF was dissolved in chloroform:methanol (1:1, v/v) at a concentration of 2 mg/ml and stored at -70° C. An aliquot of this solution was transferred to a polypropylene tube and dried under a flow of nitrogen gas. […] This stock solution was further diluted to appropriate concentrations in Hepes-saline-BSA buffer. Collagen (Sigma) and adenosine diphosphate (ADP) (Sigma) were purchased as solutions. Test compounds were initially dissolved in dimethyl sulfoxide (DMSO) at a concentration of 50 mM and then further diluted in Hepes-saline-BSA buffer to achieve appropriate concentrations.
When an aggregating agent such as PAF is added to PRP, platelets aggregate. An aggregometer quantifies this aggregation by measuring and comparing light (infra-red) transmission through PPP and PRP. Aggregation assays were performed using a dual-channel aggregometer (Model 440, Chrono-Log Corp., Havertown, Pa.). PRP (0.45 ml) in aggregometer cuvettes was continually stirred (37° C.). […] Incubations were continued until the increase in light transmission reached a maximum (usually 2 min.). This increase in light transmission reflecting platlet aggregation is transmitted to a computer by the Chrono-Log model 810 AGGRO/LINK interface. The AGGRO/LINK calculates the slope of transmission change, thus providing the rate of aggregation. Values for inhibition were calculated by comparing rates of aggregation obtained in the absence and the presence of the compound. For each experiment, a standard PAF antagonist such as 8-chloro-6,11-dihydro-11-(1-acetyl-4-piperidylidene)-5H-benzo[5,6]cyclohepta[1,2-b]pyridine was used as a positive control.
Compounds that inhibit PAF-induced aggregation were tested against several other aggregating agents including collagen (0.2 mg/ml) and ADP (2 μM).

PAF = assay: PAF-induced bronchospasm in guinea pigs; parameters: species or system guinea pig (male Hartley); settings: Cavia porcellus, read-out: PAF Agonist Bronchospasm (in Vivo) % Inhibition
Histamine = assay: Histamine-induced bronchospasm in guinea pigs; assay type: in vivo, guinea pig (male Hartley); settings: oral, histamine 10 ug/kg i.v.
Experimental: Male Hartley guinea pigs (450-550 g) were obtained from Charles River Breeding Laboratories. The animals were fasted overnight and the following day were anesthetized with 0.9 ml/kg i.p. of dialurethane (containing 0.1 g/ml diallylbarbituric acid, 0.4 g/ml ethylurea and 0.4 g/ml urethane). The left jugular vein was cannulated for the administration of compounds. The trachea was cannulated and the animals were ventilated by a rodent respirator at 55 strokes/min. with a stroke volume of 4 ml. A side arm to the tracheal cannula was connected to a pressure transducer to obtain a continuous measure of inflation pressure. Bronchoconstriction was measured as the percent increase in inflation pressure that peaked within 5 min. after challenge with spasmogen. […] Each animal was challenged with only a single spasmogen. The effect of a compound on the bronchospasm is expressed as a percent inhibition of the increase in inflation pressure compared to the increase in a control group.

Compound | IC50 [1] | inhibition in vivo at 3 mg/kg (PAF; oral, PAF 0.4 μg/kg i.v.) | Histamine Agonist Bronchospasm (in Vivo) % Inhibition (Histamine; 1 mg/kg) | also measured
[O-][n+]1ccc(CN2CCC(=C3c4ccccc4Oc4cccnc43)CC2)cc1 [Compound 10] | 8.1 µM |  |  | 
[O-][n+]1ccc(CN2CCC(=C3c4ccccc4CCc4ccccc43)CC2)cc1 [Compound 6] | 3.4 µM | 0% |  | 
[O-][n+]1ccc(CN2CCN(C3c4ccc(Cl)cc4OCc4cccnc43)CC2)cc1 (racemic) [Compound 9] | 1.7 µM | 22% |  | 
CC(=O)N1CCC(=C2c3ccc(Cl)cc3CCc3cccnc32)CC1 [Compound 2, reference compound] | 0.61 µM |  |  | inhibition in vivo at 5 mg/kg (PAF; oral, PAF 0.4 μg/kg i.v.): 59%; Histamine Agonist Bronchospasm (in Vivo) % Inhibition (Histamine; 3 mg/kg): 49%
[O-][n+]1ccc(CN2CCC(=C3c4ccc(Cl)cc4CCc4cccnc43)CC2)cc1 [Compound 4] | 4.1 µM | 35% | 96% | 
Clc1ccc2c(c1)CCc1cccnc1C2=C1CCN(Cc2ccncc2)CC1 [Compound 3] | 7.3 µM | 32% |  | 
[O-][n+]1ccc(CN2CCC(=C3c4ccc(Cl)cc4SCc4cccnc43)CC2)cc1 [Compound 8] | 1 µM |  | 83% | inhibition in vivo at 5 mg/kg (PAF; oral, PAF 0.4 μg/kg i.v.): 67%
[O-][n+]1ccc(CN2CCC(=C3c4ccccc4C=Cc4ccccc43)CC2)cc1 [Compound 5] | 7.4 µM |  |  | inhibition in vivo at 10 mg/kg (PAF; oral, 10 mg/kg, PAF 0.4 μg/kg i.v.): 15%
[O-][n+]1ccc(CN2CCN(C3c4ccc(Cl)cc4CCc4cccnc43)CC2)cc1 (racemic) [Compound 7] | 0.71 µM | 81% |  | Histamine Agonist Bronchospasm (in Vivo) % Inhibition (Histamine; 3 mg/kg): 100%
CCOC(=O)N1CCC(=C2c3ccc(Cl)cc3CCc3cccnc32)CC1 [Compound 1, reference compound] |  |  | > 50% | inhibition in vivo at 10 mg/kg (PAF; po): < 50%
